# Read-outs that look alike come from different tables or passages of the source.
# Columns and labels:
# [1] = system: Aspergillus brasiliensis ATCC 16404; experiment: Synergy test: high resolution MIC microtiter plate assay, Potato Dextrose Broth; format: cell-based; conditions: A. brasiliensis ATCC 16404, PDB, contact time 3 days; for SI (Synergy Index, Qa/QA+Qb/QB): <1 synergy; for MIC: Aspergillus brasiliensis, ATCC16404, 72 h, 25 °C
# Text: (§1) One measure of synergism is the industrially accepted method described by Kull, F. C.; Eisman, P. C.; Sylwestrowicz, H. D. and Mayer, R. L., in Applied Microbiology 9:538-541 (1961), using the ratio determined by the formula:
# (§2) Qa/QA+Qb/QB=Synergy Index (“SI”)
# (§3) wherein: • QA=concentration of compound A (first component) in ppm, acting alone, which produced an end point (MIC of Compound A). • Qa=concentration of compound A in ppm, in the mixture, which produced an end point. • QB=concentration of compound B (second component) in ppm, acting alone, which produced an end point (MIC of Compound B). • Qb=concentration of compound B in ppm, in the mixture, which produced an end point.
# (§4) When the sum of Qa/QA and Qb/QB is greater than one, antagonism is indicated. […] The lower the SI, the greater is the synergy shown by that particular mixture. The minimum inhibitory concentration (MIC) of a microbicide is the lowest concentration tested under a specific set of conditions that prevents the growth of the tested microorganisms.
# (§5) Synergy tests were conducted using standard microtiter plate assays with media designed for optimal growth of the test microorganism. Potato Dextrose Broth (PDB medium) was used for testing yeast and mold. In this method, a wide range of combinations of microbicides and other personal care raw materials was tested by conducting high resolution MIC assays in the presence of lactic acid. High resolution MICs were determined by adding varying amounts of microbicide to one column of a microtitre plate and doing subsequent […] dilutions using an automated liquid handling system to obtain a series of closely spaced endpoints.
# (§6) The synergy of the combinations of the present invention was determined against a yeast, Candida albicans (C. albicans ATCC 10231) and a mold, Aspergillus brasiliensis (A. brasiliensis ATCC 16404). The yeast and mold were used at concentrations of 5×10^5 cells per mL. These microorganisms are representative of natural contaminants in many consumer and industrial applications.
# (§7) In this test, First Component (A) was lactic acid and the Second Component (B) was phenethyl alcohol.
# • Aspergillus brasiliensis • ATCC 16404 • Potato Dextrose Broth • Contact Time=3 days
# [2] = system: Candida albicans ATCC 10231; experiment: as above; format: cell-based; conditions: C. albicans ATCC 10231, PDB, contact time 48 hours; for SI (Synergy Index, Qa/QA+Qb/QB): <1 synergy; for MIC: Candida albicans, ATCC10231, 25 °C
# Text: as §1, §2, §3, §4, §5, §6, §7
# • Candida albicans • ATCC 10231 • Potato Dextrose Broth • Contact Time=48 hours
# [3] = read-out: MIC for phenethyl alcohol alone (QB)
# [4] = read-out: MIC for lactic acid alone (QA)
"MIC [1, 3]","MIC [2, 3]","MIC [1, 4]","MIC [2, 4]",Structure (SMILES),"SI (Synergy Index, Qa/QA+Qb/QB) [1]","SI (Synergy Index, Qa/QA+Qb/QB) [2]"
10000 µg/mL,10000 µg/mL,,,"OCCc1ccccc1 [Phenethyl Alcohol, 2-phenylethan-1-ol]",1.00,1.00
,,30000 µg/mL,6000 µg/mL,"CC(O)C(=O)O (centres unmarked) [Lactic Acid, 2-hydroxypropanoic acid]",1.00,1.00
